Measured values as given in US6673745B2, “Herbicidal 3,5-difluoropyridines” (BASF Aktiengesellschaft, priority 1997, dated 2004).

Key:
Format in all cases: in vivo
[1] = system: Abutilon theophrasti (ABUTH); experiment: pre-emergence herbicidal test; settings: second assessment 21 days after treatment
Procedure: (§1) To evaluate their herbicidal activity, compounds according to the invention are tested using a representative range of plants: […] The pre-emergence tests involve spraying a liquid formulation of the compound onto the soil in which the seeds of the plant species mentioned above has recently been sown. The soil used in the tests is a prepared horticultural loam. […] In these tests untreated sown soil are used as controls.

[2] = system: Alopecurus myosuroides (ALOMY); experiment: pre-emergence herbicidal test; settings: second assessment 21 days after treatment
Procedure: as §1

[3] = system: Glycine max (GLXMA); experiment: pre-emergence herbicidal test
Procedure: as §1

[4] = system: Ipomoea hederacea (IPOHE); experiment: pre-emergence herbicidal test; settings: second assessment 21 days after treatment
Procedure: as §1

[5] = system: Matricaria inodora (MATIN); experiment: pre-emergence herbicidal test; settings: second assessment 21 days after treatment
Procedure: as §1

[6] = system: Setaria viridis (SETVI); experiment: pre-emergence herbicidal test; settings: second assessment 21 days after treatment
Procedure: as §1

[7] = system: Triticum aestivum (TRZAW); experiment: pre-emergence herbicidal test
Procedure: as §1

[8] = system: Zea mays (ZEAMX); experiment: pre-emergence herbicidal test
Procedure: as §1

[9] = system: Galium aparine (GALAP); experiment: pre-emergence herbicidal test; settings: second assessment 21 days after treatment
Procedure: (§2) To evaluate their herbicidal activity, compounds according to the invention are tested using a representative range of plants:
(§3) The pre-emergence tests involve spraying a liquid formulation of the compound onto the soil in which the seeds of the plant species mentioned above has recently been sown.
(§4) The soil used in the tests is a prepared horticultural loam. The formulations used in the tests are prepared from solutions of the test compounds in acetone containing 0.4% by weight of an alkylphenol/ethylene oxide condensate available under the trade mark TRITON X-155. These acetone solutions are diluted with water and the resulting formulations applied at dosage levels corresponding to 12.5 g, 25 g, 100 g or 400 g of active material per hectare in a volume equivalent to 900 liters per hectare. In these tests untreated sown soil are used as controls.
(§5) From 2 to 4 weeks after treatment, the tests are terminated and each pot is examined and rated according to the rating system set forth below: […]

[10] = system: Hordeum vulgare (HORVW); experiment: pre-emergence herbicidal test
Procedure: as §2, §3, §4, §5

[11] = system: Oryza sativa (ORYSA); experiment: pre-emergence herbicidal test
Procedure: as §2, §3, §4, §5

[12] = system: Stellaria media (STEME); experiment: pre-emergence herbicidal test; settings: second assessment 21 days after treatment
Procedure: as §2, §3, §4, §5

[13] = system: Veronica persica (VERPE); experiment: pre-emergence herbicidal test; settings: second assessment 21 days after treatment
Procedure: as §2, §3, §4, §5

[14] = system: weeds; experiment: pre-emergence test, overall weed control; settings: dose of 25 g/ha
Procedure: as §2, §3, §4
(§6) From 2 to 4 weeks after treatment, the tests are terminated and each pot is examined and rated according to the rating system set forth below:
(§7) The compounds of the invention have shown to clearly improve selectivity in important crops (maize, soybeans, wheat, barley) when compared to the corresponding compounds of the state of the art having a central 4-methylpyrid-2,6-diyl moiety instead of the 3,5-difluoro-4-methylpyrid-2,6-diyl group according to the invention.

[15] = system: rice, maize and wheat; experiment: pre-emergence test, crop tolerance and selectivity; settings: dose of 25 g/ha
Procedure: as §2, §3, §4, §6, §7

[16] = system: Ambrosia artemisiifolia (AMBEL); experiment: pre-emergence herbicidal test; settings: second assessment 21 days after treatment
Procedure: as §1

[17] = 0.0125 kg/ha, first assessment 10 days after treatment
[18] = 0.0125 kg/ha, second assessment 21 days after treatment
[19] = 0.025 kg/ha, first assessment 10 days after treatment
[20] = 0.025 kg/ha, second assessment 21 days after treatment
[21] = 0.100 kg/ha, first assessment 10 days after treatment
[22] = 0.100 kg/ha, second assessment 21 days after treatment
[23] = 0.400 kg/ha, first assessment 10 days after treatment
[24] = 0.400 kg/ha, second assessment 21 days after treatment

Cc1c(F)c(Oc2cc(C(F)(F)F)nn2C)nc(-c2ccc(C(F)(F)F)cc2)c1F [Example 1, 3,5-Difluoro4-methyl-2-(1-methyl-3-trifluoromethylpyrazol-5-yloxy)-6-(4-trifluoromethylphenyl)pyridine]
1 (1 - Trace effect): ZEAMX rating [8, 17] | ZEAMX rating [8, 18] | ORYSA rating [11, 17] | ORYSA rating [11, 19]
6 (6 - Herbicidal effect): ABUTH rating ([1]; 0.0125 kg/ha) | TRZAW rating [7, 23] | TRZAW rating [7, 24] | HORVW rating [10, 23]
8 (8 - Approaching complete kill): ALOMY rating ([2]; 0.025 kg/ha) | MATIN rating ([5]; 0.0125 kg/ha) | MATIN rating ([5]; 0.025 kg/ha) | GALAP rating ([9]; 0.400 kg/ha) | VERPE rating ([13]; 0.0125 kg/ha)
good overall levels of weed control: overall levels of weed control [14]
2 (2 - Slight effect): GLXMA rating [3, 17] | GLXMA rating [3, 19] | ZEAMX rating [8, 19] | ZEAMX rating [8, 20] | ORYSA rating [11, 18] | ORYSA rating [11, 20]
well tolerated: crop tolerance [15]
3 (3 - Moderate effect): GLXMA rating [3, 21] | IPOHE rating ([4]; 0.025 kg/ha) | TRZAW rating [7, 17] | TRZAW rating [7, 18] | TRZAW rating [7, 19] | TRZAW rating [7, 20] | ZEAMX rating [8, 21] | ZEAMX rating [8, 22] | GALAP rating ([9]; 0.0125 kg/ha) | ORYSA rating [11, 21]
9 (9 - Complete kill): ABUTH rating ([1]; 0.025 kg/ha) | ABUTH rating ([1]; 0.100 kg/ha) | ABUTH rating ([1]; 0.400 kg/ha) | ALOMY rating ([2]; 0.100 kg/ha) | ALOMY rating ([2]; 0.400 kg/ha) | IPOHE rating ([4]; 0.100 kg/ha) | IPOHE rating ([4]; 0.400 kg/ha) | MATIN rating ([5]; 0.100 kg/ha) | MATIN rating ([5]; 0.400 kg/ha) | SETVI rating ([6]; 0.100 kg/ha) | SETVI rating ([6]; 0.400 kg/ha) | STEME rating ([12]; 0.0125 kg/ha) | STEME rating ([12]; 0.025 kg/ha) | STEME rating ([12]; 0.100 kg/ha) | STEME rating ([12]; 0.400 kg/ha) | VERPE rating ([13]; 0.025 kg/ha) | VERPE rating ([13]; 0.100 kg/ha) | VERPE rating ([13]; 0.400 kg/ha)
5 (5 - Definite injury): GLXMA rating [3, 22] | GLXMA rating [3, 24] | TRZAW rating [7, 21] | TRZAW rating [7, 22] | GALAP rating ([9]; 0.025 kg/ha) | HORVW rating [10, 19] | HORVW rating [10, 21] | HORVW rating [10, 22] | ORYSA rating [11, 24]
4 (4 - Injury): GLXMA rating [3, 18] | GLXMA rating [3, 20] | GLXMA rating [3, 23] | HORVW rating [10, 17] | HORVW rating [10, 18] | HORVW rating [10, 20] | ORYSA rating [11, 22] | ORYSA rating [11, 23]
7 (7 - Good herbicidal effect): ALOMY rating ([2]; 0.0125 kg/ha) | SETVI rating ([6]; 0.0125 kg/ha) | SETVI rating ([6]; 0.025 kg/ha) | GALAP rating ([9]; 0.100 kg/ha) | HORVW rating [10, 24]

Cc1c(F)c(Oc2cccc(C(F)(F)F)c2)nc(-c2ccc(C(F)(F)F)cc2)c1F [Example 2]
6 (6 - Herbicidal effect): GLXMA rating [3, 23]
9 (9 - Complete kill): ALOMY rating ([2]; 0.400 kg/ha) | AMBEL rating ([16]; 0.400 kg/ha) | MATIN rating ([5]; 0.400 kg/ha) | SETVI rating ([6]; 0.100 kg/ha) | SETVI rating ([6]; 0.400 kg/ha)
3 (3 - Moderate effect): ABUTH rating ([1]; 0.100 kg/ha) | ALOMY rating ([2]; 0.025 kg/ha) | GLXMA rating [3, 21] | IPOHE rating ([4]; 0.100 kg/ha) | ZEAMX rating [8, 23] | ZEAMX rating [8, 24]
7 (7 - Good herbicidal effect): GLXMA rating [3, 24] | IPOHE rating ([4]; 0.400 kg/ha) | MATIN rating ([5]; 0.0125 kg/ha)
8 (8 - Approaching complete kill): ABUTH rating ([1]; 0.400 kg/ha) | MATIN rating ([5]; 0.025 kg/ha) | MATIN rating ([5]; 0.100 kg/ha) | SETVI rating ([6]; 0.025 kg/ha)
5 (5 - Definite injury): AMBEL rating ([16]; 0.025 kg/ha) | AMBEL rating ([16]; 0.100 kg/ha) | SETVI rating ([6]; 0.0125 kg/ha) | TRZAW rating [7, 24]
0 (0 - No effect): ABUTH rating ([1]; 0.0125 kg/ha) | GLXMA rating [3, 17] | TRZAW rating [7, 18] | TRZAW rating [7, 20] | ZEAMX rating [8, 17] | ZEAMX rating [8, 18]
1 (1 - Trace effect): ABUTH rating ([1]; 0.025 kg/ha) | GLXMA rating [3, 19] | IPOHE rating ([4]; 0.0125 kg/ha) | TRZAW rating [7, 17] | TRZAW rating [7, 19] | TRZAW rating [7, 21] | TRZAW rating [7, 22] | ZEAMX rating [8, 19] | ZEAMX rating [8, 20]
4 (4 - Injury): AMBEL rating ([16]; 0.0125 kg/ha) | GLXMA rating [3, 22] | TRZAW rating [7, 23]
2 (2 - Slight effect): ALOMY rating ([2]; 0.0125 kg/ha) | GLXMA rating [3, 18] | GLXMA rating [3, 20] | IPOHE rating ([4]; 0.025 kg/ha) | ZEAMX rating [8, 21] | ZEAMX rating [8, 22]
